Entries after “also recorded” stand apart in the source; their conditions may differ. Like-named read-outs stand apart in the source and are kept apart here.
Columns and labels:
SARS-CoV = test: microbe, parasite or virus in culture; assay type: cell-based; conditions: read-out: EC50, SARS-CoV plaque formation
Vero cells = conditions: African green monkey
[1] = molecular target: T1, human neutrophil elastase (HNE) (Homo sapiens, UniProt P08246); assay type: biochemical
T1 sequence (P08246 30-267): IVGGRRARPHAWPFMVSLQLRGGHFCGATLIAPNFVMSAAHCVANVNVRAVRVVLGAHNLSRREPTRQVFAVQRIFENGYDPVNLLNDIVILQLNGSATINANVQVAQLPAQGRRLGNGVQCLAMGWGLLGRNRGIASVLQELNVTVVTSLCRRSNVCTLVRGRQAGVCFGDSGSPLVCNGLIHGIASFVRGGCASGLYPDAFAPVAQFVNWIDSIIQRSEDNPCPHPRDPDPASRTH

poliovirus (type 1) = assay type: cell-based
[2] = Severe acute respiratory syndrome coronavirus, Vero

SMILES	EC50 (SARS-CoV; [2])	EC50 (SARS-CoV)	Cytotoxicity on Vero Cells (TC50) (Vero cells)	Inhibition of proteolytic activity of HNE [1]	Inhibition of poliovirus plaque formation (poliovirus (type 1))
O=C(Nc1ccc(Cl)c(-c2nc3ncccc3o2)c1)c1cccc(OCc2ccccc2)c1 [HE602, 3-Benzyloxy-N-(4-chloro-3-oxazolo[4,5-b]pyridine-2-yl-phenyl)benzamide]	6 µM	< 10 µM	>50 µM	–	–
CC1=C(C(=O)OCCc2ccccc2)C(c2ccccc2[N+](=O)[O-])C2=C(CCCC2=O)N1 (stereo not drawn) [MP576, 3-quinolinecarboxylic acid, 1,4,5,6,7,8-hexahydro-2-methyl-4-(2-nitrophenyl)-5-oxo-, 2-phenylethyl ester]	7 µM	< 10 µM	>50 µM	failed to inhibit; also recorded: did not inhibit	–
OC(COc1cccc(OCC(O)CN2CCCCC2)c1)CN1CCCCC1 (stereo not drawn) [VE607, 1-[3-(2-Hydroxyl-3-piperidin-1-yl-propoxy)-phenoxy]-3-piperidin-1-ylpropan-2-ol]	–	–	>50 µM	–	did not protect; also recorded: did not inhibit

From paper PMC7128553 (Chemistry & Biology, 2004)
